Measurements reported in ChEMBL document CHEMBL5042474, “Structure-Guided Discovery of Potent and Selective DYRK1A Inhibitors” (J Med Chem, 2021).

Columns and labels:
[1] = test system: RS4-11; test: Antitumor activity against human RS4-11 cells xenografted in BALB/c nu/nu mouse assessed as reduction in DYRK1A autophosphorylation of S520 residue at 6.25 mg/kg, po measured after 2 hrs by western blotting analysis relative to control; format: functional; design: scale not given: the % may be the effect or the level left
[2] = target: Dual specificity protein kinase CLK2 (Homo sapiens) (UniProt P49760); test: Residual activity of CLK2 (unknown origin) at 10 nM using Ulight-MBP as substrate and ATP as co-substrate incubated for 40 mins and measured after 1 hr by TR-FRET assay relative to control; details: time 100.0 min
Dual specificity protein kinase CLK2 (Homo sapiens), sequence (P49760 whole entry, looked up): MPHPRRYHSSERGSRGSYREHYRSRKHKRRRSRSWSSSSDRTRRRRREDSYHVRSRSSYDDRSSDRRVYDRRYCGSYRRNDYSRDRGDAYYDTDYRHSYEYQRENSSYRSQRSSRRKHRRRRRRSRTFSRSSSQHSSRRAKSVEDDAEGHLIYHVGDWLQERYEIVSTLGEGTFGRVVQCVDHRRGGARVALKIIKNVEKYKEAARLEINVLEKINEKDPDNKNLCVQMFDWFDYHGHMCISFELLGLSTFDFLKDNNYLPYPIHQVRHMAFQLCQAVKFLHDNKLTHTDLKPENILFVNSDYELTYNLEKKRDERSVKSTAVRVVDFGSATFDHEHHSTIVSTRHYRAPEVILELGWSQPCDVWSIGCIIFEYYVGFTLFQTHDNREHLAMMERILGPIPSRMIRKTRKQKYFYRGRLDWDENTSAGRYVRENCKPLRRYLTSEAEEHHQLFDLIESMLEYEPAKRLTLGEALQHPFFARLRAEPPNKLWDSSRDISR

[3] = test system: A2780; test: cells; details: Homo sapiens
[4] = test system: C-33-A; test: cells; details: Homo sapiens
[5] = test system: A2780; test: Antitumor activity against human A2780 cells xenografted in Balb/c mouse assessed as tumor volume T/C at 4.75 mg/kg, po bid for 14 days relative to control; details: time 14 day
[6] = target: Homeodomain-interacting protein kinase 1 (Homo sapiens) (UniProt Q86Z02); test: Residual activity of HIPK1 (unknown origin) at 10 nM using Ulight-MBP as substrate and ATP as co-substrate incubated for 40 mins and measured after 1 hr by TR-FRET assay relative to control; details: time 100.0 min
Homeodomain-interacting protein kinase 1 (Homo sapiens), sequence (Q86Z02 whole entry, looked up): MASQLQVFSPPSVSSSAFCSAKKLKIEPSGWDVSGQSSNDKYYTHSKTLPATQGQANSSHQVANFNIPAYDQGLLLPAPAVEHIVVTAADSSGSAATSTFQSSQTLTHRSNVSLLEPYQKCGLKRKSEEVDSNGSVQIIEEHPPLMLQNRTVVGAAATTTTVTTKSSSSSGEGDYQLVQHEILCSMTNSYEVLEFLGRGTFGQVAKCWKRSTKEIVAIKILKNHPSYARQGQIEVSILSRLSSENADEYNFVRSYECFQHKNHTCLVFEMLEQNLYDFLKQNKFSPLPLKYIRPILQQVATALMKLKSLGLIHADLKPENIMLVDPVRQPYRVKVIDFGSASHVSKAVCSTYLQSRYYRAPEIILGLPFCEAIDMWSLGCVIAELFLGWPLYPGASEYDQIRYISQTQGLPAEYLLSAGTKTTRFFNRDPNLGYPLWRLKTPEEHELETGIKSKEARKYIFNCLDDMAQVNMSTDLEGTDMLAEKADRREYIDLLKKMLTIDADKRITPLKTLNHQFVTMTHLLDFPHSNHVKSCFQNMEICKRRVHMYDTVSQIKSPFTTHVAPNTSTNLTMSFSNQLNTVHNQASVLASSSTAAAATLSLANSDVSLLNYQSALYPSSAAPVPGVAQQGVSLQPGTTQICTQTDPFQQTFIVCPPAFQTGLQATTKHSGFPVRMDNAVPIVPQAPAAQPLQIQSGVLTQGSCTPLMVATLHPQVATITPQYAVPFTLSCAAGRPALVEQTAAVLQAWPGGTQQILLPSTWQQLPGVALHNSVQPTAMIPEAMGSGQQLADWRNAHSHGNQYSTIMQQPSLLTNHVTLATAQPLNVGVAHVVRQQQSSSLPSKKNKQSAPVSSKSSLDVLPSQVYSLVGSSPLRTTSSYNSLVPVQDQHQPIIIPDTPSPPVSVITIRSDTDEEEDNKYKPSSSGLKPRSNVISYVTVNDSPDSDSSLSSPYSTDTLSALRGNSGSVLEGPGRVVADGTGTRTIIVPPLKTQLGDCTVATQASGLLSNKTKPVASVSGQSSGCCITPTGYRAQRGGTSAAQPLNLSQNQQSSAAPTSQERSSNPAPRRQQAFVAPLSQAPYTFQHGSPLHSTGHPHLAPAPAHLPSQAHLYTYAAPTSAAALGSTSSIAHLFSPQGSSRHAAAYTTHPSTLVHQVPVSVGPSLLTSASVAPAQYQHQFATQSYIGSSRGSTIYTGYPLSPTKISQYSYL

[7] = test system: A2780; test: Antitumor activity against human A2780 cells xenografted in Balb/c mouse assessed as inhibition of tumor growth at 37.5 mg/kg, po bid for 14 days relative to control; format: functional; details: 336 h, time 14 day, read-out: TGI
[8] = target: T1, Dual specificity tyrosine-phosphorylation-regulated kinase 2 (Homo sapiens, UniProt Q92630); test: Inhibition of DYRK2 (unknown origin) using Ulight-MBP as substrate and ATP as co-substrate incubated for 40 mins and measured after 1 hr by TR-FRET assay
T1 sequence (Q92630 whole entry): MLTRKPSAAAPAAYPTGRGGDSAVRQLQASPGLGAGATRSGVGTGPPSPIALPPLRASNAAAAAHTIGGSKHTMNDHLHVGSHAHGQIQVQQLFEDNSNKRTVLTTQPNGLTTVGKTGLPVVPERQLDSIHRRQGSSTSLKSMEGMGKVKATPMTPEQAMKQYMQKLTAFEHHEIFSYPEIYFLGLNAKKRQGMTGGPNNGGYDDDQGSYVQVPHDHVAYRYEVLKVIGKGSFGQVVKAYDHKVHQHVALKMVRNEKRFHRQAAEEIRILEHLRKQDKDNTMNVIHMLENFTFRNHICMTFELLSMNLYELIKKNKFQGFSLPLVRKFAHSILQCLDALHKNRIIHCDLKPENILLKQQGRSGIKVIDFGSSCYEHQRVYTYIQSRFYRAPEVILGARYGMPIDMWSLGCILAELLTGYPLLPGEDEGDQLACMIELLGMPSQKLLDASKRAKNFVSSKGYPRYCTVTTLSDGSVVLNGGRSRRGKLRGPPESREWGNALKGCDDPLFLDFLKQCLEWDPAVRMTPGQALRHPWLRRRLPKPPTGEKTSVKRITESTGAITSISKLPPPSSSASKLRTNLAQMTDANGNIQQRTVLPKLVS

[9] = test system: A2780; test: Antitumour activity against human A2780 cells xenografted in mouse assessed as reduction in DYRK1A autophosphorylation of S520 residue at 4.687 mg/kg, po meausred after 6 hrs by western blotting analysis relative to control; format: functional; design: scale not given: the % may be the effect or the level left
[10] = test system: A2780; test: Antitumour activity against human A2780 cells xenografted in Balb/c mouse assessed as tumour volume T/C at 37.5 mg/kg, po bid for 14 days relative to control; details: time 14 day
[11] = test system: A2780; test: Antitumor activity against human A2780 cells xenografted in BALB/c nu/nu mouse assessed as reduction in DYRK1A autophosphorylation of S520 residue at 4.687 mg/kg, po measured after 2 hrs by western blotting analysis relative to control; format: functional; design: scale not given: the % may be the effect or the level left
[12] = test system: RS4-11; test: Antitumor activity against human RS4-11 cells xenografted in BALB/c nu/nu mouse assessed as reduction in DYRK1A autophosphorylation of S520 residue at 3.125 mg/kg, po measured after 6 hrs by western blotting analysis relative to control; format: functional; design: scale not given: the % may be the effect or the level left
[13] = test system: A2780; test: Antitumour activity against human A2780 cells xenografted in Balb/c mouse assessed as tumor volume T/C at 18.75 mg/kg, po bid for 14 days relative to control; details: time 14 day
[14] = target: Dual specificity tyrosine-phosphorylation-regulated kinase 1B (Homo sapiens) (UniProt Q9Y463); test: Residual activity of DYRK1B (unknown origin) at 10 nM using Ulight-MBP as substrate and ATP as co-substrate incubated for 40 mins and measured after 1 hr by TR-FRET assay relative to control; details: time 100.0 min
Dual specificity tyrosine-phosphorylation-regulated kinase 1B (Homo sapiens), sequence (Q9Y463 whole entry, looked up): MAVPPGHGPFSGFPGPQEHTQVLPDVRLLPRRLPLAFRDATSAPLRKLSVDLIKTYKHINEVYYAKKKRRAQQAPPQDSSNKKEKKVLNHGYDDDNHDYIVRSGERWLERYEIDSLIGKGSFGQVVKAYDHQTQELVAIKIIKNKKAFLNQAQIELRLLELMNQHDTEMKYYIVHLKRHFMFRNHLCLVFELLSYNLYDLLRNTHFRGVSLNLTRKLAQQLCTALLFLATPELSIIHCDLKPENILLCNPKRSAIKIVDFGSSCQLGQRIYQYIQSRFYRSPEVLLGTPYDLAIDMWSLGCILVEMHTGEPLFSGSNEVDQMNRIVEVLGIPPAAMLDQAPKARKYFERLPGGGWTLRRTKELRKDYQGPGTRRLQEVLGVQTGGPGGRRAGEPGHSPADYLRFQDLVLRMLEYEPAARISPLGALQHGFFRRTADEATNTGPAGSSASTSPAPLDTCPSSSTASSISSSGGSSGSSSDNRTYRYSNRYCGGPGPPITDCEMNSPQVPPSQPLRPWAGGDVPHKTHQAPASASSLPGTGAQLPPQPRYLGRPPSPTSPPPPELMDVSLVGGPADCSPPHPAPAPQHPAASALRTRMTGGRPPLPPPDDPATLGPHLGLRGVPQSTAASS

[15] = Toxicity in Balb/c nude mouse xenografted with human A2780 cells assessed as decrease in body weight at 18.75 mg/kg, po bid for 14 days relative to control; format: organism-based; design: scale not given: the % may be the effect or the level left; details: in vivo, 336 h, time 14 day
[16] = test system: A2780; test: Antitumor activity against human A2780 cells xenografted in BALB/c […] mouse assessed as reduction in DYRK1A autophosphorylation of S520 residue at 37.5 mg/kg, po measured after 6 hrs by western blotting analysis relative to control; format: functional; design: scale not given: the % may be the effect or the level left
[17] = test system: A2780; test: Antitumor activity against human A2780 cells xenografted in Balb/c mouse assessed as tumor volume T/C at 75 mg/kg, po bid for 14 days relative to control; details: time 14 day
[18] = test system: A2780; test: Antitumor activity against human A2780 cells xenografted in BALB/c nu/nu mouse assessed as reduction in DYRK1A autophosphorylation of S520 residue at 18.75 mg/kg, po measured after 2 hrs by western blotting analysis relative to control; format: functional; design: scale not given: the % may be the effect or the level left
[19] = test system: A2780; test: Antitumor activity against human A2780 cells xenografted in BALB/c nu/nu mouse assessed as reduction in DYRK1A autophosphorylation of S520 residue at 18.75 mg/kg, po measured after 6 hrs by western blotting analysis relative to control; format: functional; design: scale not given: the % may be the effect or the level left
[20] = Toxicity in Balb/c nude mouse xenografted with human A2780 cells assessed as decrease in body weight at 9.5 mg/kg, po bid for 14 days relative to control; format: organism-based; design: scale not given: the % may be the effect or the level left; details: in vivo, 336 h, time 14 day
[21] = target: Dual specificity tyrosine-phosphorylation-regulated kinase 1A (Homo sapiens, UniProt Q13627); test: Residual activity of DYRK1A (unknown origin) at 10 nM using Ulight-MBP as substrate and ATP as co-substrate incubated for 40 mins and measured after 1 hr by TR-FRET assay relative to control; details: time 100.0 min
[22] = test system: A2780; test: Antitumour activity against human A2780 cells xenografted in Balb/c mouse assessed as tumor volume T/C at 9.5 mg/kg, po bid for 14 days relative to control; details: time 14 day

residual activity [2]: 40%
IC50 [3]: 126 nM
IC50 [4]: 157 nM
residual activity [6]: 72%
IC50 [8]: 3 nM
residual activity [14]: 20%
residual activity [21]: 9.2%
SMILES: Cc1nc2ccc(-c3cc(N)nc(N)c3)nc2n1C1CC1
Activity [1]: 77%
T/C [5]: 91%
inhibition in vivo at 37.5 mg/kg [7]: 63%
Activity [9]: 0%
T/C [10]: 52%
Activity [11]: 60%
Activity [12]: 38%
T/C [13]: 63%
Activity [15]: 10.7%
Activity [16]: 95%
T/C [17]: 24%
Activity [18]: 82%
Activity [19]: 80%
Activity [20]: 8.7%
T/C [22]: 95%
